Data published in US8481527B2, “Benzamide derivatives as bradykinin antagonists” (Richter Gedeon Nyrt., priority 2006, dated 2013).

How the values were obtained:
[1] = target: T1, recombinant human B1 receptors (Homo sapiens, UniProt P46663); assay: Functional assay: antagonist potency by cytosolic calcium measurement in CHO-B1 cells (agonist LysDABK); type: cell-based; settings: CHO-B1 cells, LysDABK at EC80, fluo-4 [Ca2+]i; read-out: B1 func.
T1 construct: host or cells: CHO (CHO-B1)
T1 sequence (P46663 1-353): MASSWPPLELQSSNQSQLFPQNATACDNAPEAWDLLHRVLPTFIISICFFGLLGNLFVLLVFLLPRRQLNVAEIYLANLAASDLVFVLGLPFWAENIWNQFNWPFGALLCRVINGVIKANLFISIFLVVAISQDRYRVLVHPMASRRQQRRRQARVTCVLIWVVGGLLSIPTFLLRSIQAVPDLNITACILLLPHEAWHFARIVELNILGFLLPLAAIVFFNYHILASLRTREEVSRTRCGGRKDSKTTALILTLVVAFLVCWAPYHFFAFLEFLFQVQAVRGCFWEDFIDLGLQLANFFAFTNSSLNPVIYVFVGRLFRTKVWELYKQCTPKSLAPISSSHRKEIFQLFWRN
Method: Assessment of Antagonist Potency at B1 and B2 Receptors In Vitro by Measurement of Cytosolic Calcium Ion Concentration with a Plate Reader Fluorimeter in Cells Expressing Recombinant Human B1 or B2 Receptors
Chinese hamster ovary (CHO) cells stably expressing recombinant human B1 (CHO-B1, Euroscreen) or B2 (CHO-B2, Perkin-Elmer) receptors were cultured in Dulbecco's Modified Eagle's Medium (DMEM) containing 10% Fetal Calf Serum (FCS), 100 U/ml penicillin, 0.1 mg/ml streptomycin, 0.25 μg/ml amphotericin B, 1% Minimum Essential Medium Eagle (MEM), non essential amino acid solution, 600 μg/ml G418, 1% pyruvate (for the B2 cell line). Cells were kept at 37° C. in a humidified incubator in an atmosphere of 5% CO2/95% air and were passaged 1:4 three times a week. Cells were plated at 1.5-2.5×10^4 cell/well on standard 96-well microplates, measurements of cytosolic calcium ion concentration ([Ca^2+]i) were carried out 1-2 days after cell plating.
Measurements of [Ca^2+]i were carried out on CHO-B1 and CHO-B2 cells stably expressing human B1 and B2 receptors, respectively. Cells were grown in standard 96-well microplates and before the measurement were loaded with a fluorescent Ca^2+-sensitive dye, fluo-4/AM (2 μM): after removing the culture medium the dye was added to the cells (dissolved in assay buffer: 145 mM NaCl, 5 mM KCl, 2 mM MgCl2, 2 mM CaCl2, 10 mM HEPES, 20 mM D-glucose, 2 mM probenecid, 100 μl/well) and cells were incubated at 37° C. in a humidified incubator in an atmosphere of 5% CO2/95% air for 40-120 min. To stop dye loading cells were washed twice with assay buffer. After washing, various concentrations of the test compounds (diluted in extracellular medium from a DMSO stock solution, final DMSO concentration was <0.1%) or buffer were added to each well depending on the experimental setup. After incubation at 37° C. for 20-25 min. baseline and agonist-evoked changes of [Ca^2+]i were measured column by column with a plate reader fluorimeter (Fluoroskan Ascent, Labsystems). Excitation and detection of emission was carried out from the bottom of the plate. Filters used for Fluo-4: excitation filter—485 nm, emission filter—538 nm. The whole measurement process was performed at 37° C. and was controlled by custom software. Inhibitory potency of the test compounds was assessed by measuring the reduction in the agonist-evoked [Ca^2+]i-elevation in the presence of different concentrations of the compounds. The agonists were LysDABK for CHO-B1, and bradykinin for CHO-B2 cells. Agonists were applied at an EC80 concentration, the EC80-values were derived from daily determined dose-response curves. Fluorescence data were expressed as ΔF/F (fluorescence change normalized to baseline). All treatments on a single plate were measured in multiple wells. Data from all wells with the same treatment were averaged and the average values were used for analysis. Inhibitory potency of a compound at a single concentration point was expressed as percent inhibition of the control agonist response. Sigmoidal concentration-inhibition curves were fitted to the data (derived from at least three independent experiments) and IC50-values were determined as the concentration that produces half of the maximal inhibition caused by the compound.

[2] = target: T2, human recombinant bradykinin B1 receptor (Homo sapiens, UniProt P46663); assay: Human recombinant bradykinin B1 receptor binding; settings: CHO cell membranes, [3H]-[Des-Arg10] Kallidin radioligand; read-out: B1 binding
T2 construct: purchased Euroscreen ES-091; host or cells: CHO cells
T2 sequence (P46663 1-353): T1 sequence (P46663 1-353)
Method: Receptor Binding Assays 1. Human Recombinant Bradykinin B1 Receptor Binding
Binding assays were carried out on human recombinant bradykinin) receptors (expressed in CHO cells) according to the Euroscreen Technical Data Sheet (Cat.No.:ES-091). 20 μg protein/tube was incubated with [3,4-prolyl-3,4-^3H(N)]-[Des-Arg^10] Kallidin as radioligand. Non specific binding was determined in the presence of 10 μM Lys-des-Arg^9-Bradykinin. The final incubation volume was 250 μl. Samples were incubated for 15 min. at 25° C. then were rapidly vacuum filtered through GF/B filters presoaked for at least 1 h in 0.5% PEI. Radioactivity was determined by liquid scintillation spectroscopy.

Row | Structure (SMILES) | IC50 [1] [nM] | Ki [2] [nM]
1 | O=C(NCC(=O)N1CCN(CCN2CCCC2)CC1)c1ccc(S(=O)(=O)Nc2ccccc2Oc2ccc(Cl)cc2Cl)cc1 [Example 1.1, 4-[2-(2,4-Dichloro-phenoxy)-phenylsulfamoyl]-N-{2-oxo-2-[4-(2-pyrrolidin-1-yl-ethyl)-piperazin-1-yl]-ethyl}-benzamide] | < 20 | < 20
2 | CN(C)CCN1CCN(C(=O)CNC(=O)c2ccc(S(=O)(=O)Nc3ccccc3Oc3ccc(Cl)cc3Cl)cc2)CC1 [Example 1.2, 4-[2-(2,4-Dichloro-phenoxy)-phenylsulfamoyl]-N-{2-[4-(2-dimethylamino-ethyl)-piperazin-1-yl]-2-oxo-ethyl}-benzamide] | < 20 | < 20
3 | CCN(CC)CCN1CCN(C(=O)CNC(=O)c2ccc(S(=O)(=O)Nc3ccccc3Oc3ccc(Cl)cc3Cl)cc2)CC1 [Example 1.3, 4-[2-(2,4-Dichloro-phenoxy)-phenylsulfamoyl]-N-{2-[4-(2-diethylamino-ethyl)-piperazin-1-yl]-2-oxo-ethyl}-benzamide] | < 20 | < 20
4 | O=C(NCC(=O)N1CCN(CCCN2CCCC2)CC1)c1ccc(S(=O)(=O)Nc2ccccc2Oc2ccc(Cl)cc2Cl)cc1 [Example 1.4, 4-[2-(2,4-Dichloro-phenoxy)-phenylsulfamoyl]-N-{2-oxo-2-[4-(3-pyrrolidin-1-yl-propyl)-piperazin-1-yl]-ethyl}-benzamide] | < 20 | < 20
5 | CN1CCCC(CN2CCN(C(=O)CNC(=O)c3ccc(S(=O)(=O)Nc4ccccc4Oc4ccc(Cl)cc4Cl)cc3)CC2)C1 (centres unmarked) [Example 1.5, 4-[2-(2,4-Dichloro-phenoxy)-phenylsulfamoyl]-N-{2-[4-(1-methyl-piperidin-3-ylmethyl)-piperazin-1-yl]-2-oxo-ethyl}-benzamide] | < 20 | < 20
6 | O=C(NCC(=O)N1CCC(CCN2CCCC2)CC1)c1ccc(S(=O)(=O)Nc2ccccc2Oc2ccc(Cl)cc2Cl)cc1 [Example 1.6, 4-[2-(2,4-Dichloro-phenoxy)-phenylsulfamoyl]-N-{2-oxo-2-[4-(2-pyrrolidin-1-yl-ethyl)-piperidin-1-yl]-ethyl}-benzamide] | < 20 | < 20
7 | O=C(NCC(=O)N1CCN(c2ncccn2)CC1)c1ccc(S(=O)(=O)Nc2ccccc2Oc2ccc(Cl)cc2Cl)cc1 [Example 1.7, 4-[2-(2,4-Dichloro-phenoxy)-phenylsulfamoyl]-N-[2-oxo-2-(4-pyrimidin-2-yl-piperazin-1-yl)-ethyl]-benzamide] | < 20 | < 20
8 | O=C(NCC(=O)N1CCCN(CCCN2CCOCC2)CC1)c1ccc(S(=O)(=O)Nc2ccccc2Oc2ccc(Cl)cc2Cl)cc1 [Example 1.8, 4-[2-(2,4-Dichloro-phenoxy)-phenylsulfamoyl]-N-{2-[4-(3-morpholin-4-yl-propyl)-[1,4]diazepan-1-yl]-2-oxo-ethyl}-benzamide] | < 20 | < 20
9 | O=C(NCC(=O)N1CCN(CCCN2CCCCC2)CC1)c1ccc(S(=O)(=O)Nc2ccccc2Oc2ccc(Cl)cc2Cl)cc1 [Example 1.9, 4-[2-(2,4-Dichloro-phenoxy)-phenylsulfamoyl]-N-{2-oxo-2-[4-(3-piperidin-1-yl-propyl)-piperazin-1-yl]-ethyl}-benzamide] | < 20 | < 20
10 | CN(C)CCCN1CCN(C(=O)CNC(=O)c2ccc(S(=O)(=O)Nc3ccccc3Oc3ccc(Cl)cc3Cl)cc2)CC1 [Example 1.10, 4-[2-(2,4-Dichloro-phenoxy)-phenylsulfamoyl]-N-{2-[4-(3-dimethylamino-propyl)-piperazin-1-yl]-2-oxo-ethyl}-benzamide] | < 20 | < 20
11 | O=C(NCC(=O)N1CCCN(CCCN2CCCC2)CC1)c1ccc(S(=O)(=O)Nc2ccccc2Oc2ccc(Cl)cc2Cl)cc1 [Example 1.11, 4-[2-(2,4-Dichloro-phenoxy)-phenylsulfamoyl]-N-{2-oxo-2-[4-(3-pyrrolidin-1-yl-propyl)-[1,4]diazepan-1-yl]-ethyl}-benzamide] | < 20 | < 20
12 | O=C(NCC(=O)N1CCN(CCCN2CCOCC2)CC1)c1ccc(S(=O)(=O)Nc2ccccc2Oc2ccc(Cl)cc2Cl)cc1 [Example 1.12, 4-[2-(2,4-Dichloro-phenoxy)-phenylsulfamoyl]-N-{2-[4-(3-morpholin-4-yl-propyl)-piperazin-1-yl]-2-oxo-ethyl}-benzamide] | < 20 | < 20
13 | O=C(NCC(=O)N1CCN(CCN2CCCCC2)CC1)c1ccc(S(=O)(=O)Nc2ccccc2Oc2ccc(Cl)cc2Cl)cc1 [Example 1.13, 4-[2-(2,4-Dichloro-phenoxy)-phenylsulfamoyl]-N-{2-oxo-2-[4-(2-piperidin-1-yl-ethyl)-piperazin-1-yl]-ethyl}-benzamide] | < 20 | < 20
14 | O=C(NCC(=O)N1CCC(N2CCCC2)CC1)c1ccc(S(=O)(=O)Nc2ccccc2Oc2ccc(Cl)cc2Cl)cc1 [Example 1.21, 4-[2-(2,4-Dichloro-phenoxy)-phenylsulfamoyl]-N-[2-oxo-2-(4-pyrrolidin-1-yl-piperidin-1-yl)-ethyl]-benzamide] | < 20 | < 20
15 | O=C(NCC(=O)N1CCC(O)CC1)c1ccc(S(=O)(=O)Nc2ccccc2Oc2ccc(Cl)cc2Cl)cc1 [Example 1.22, 4-[2-(2,4-Dichloro-phenoxy)-phenylsulfamoyl]-N-[2-(4-hydroxy-piperidin-1-yl)-2-oxo-ethyl]-benzamide] | < 20 | < 20
16 | O=C(NCC(=O)N1CCN(CCN2CCCC2)CC1)c1ccc(S(=O)(=O)Nc2ccccc2Oc2ccccc2)cc1 [Example 2.2, N-{2-Oxo-2-[4-(2-pyrrolidin-1-yl-ethyl)-piperazin-1-yl]-ethyl}-4-(2-phenoxy-phenylsulfamoyl)-benzamide] | < 20 | < 20
17 | CN(C)CCN1CCN(C(=O)CNC(=O)c2ccc(S(=O)(=O)Nc3ccccc3Oc3ccccc3)cc2)CC1 [Example 2.3, N-{2-[4-(2-Dimethylamino-ethyl)-piperazin-1-yl]-2-oxo-ethyl}-4-(2-phenoxy-phenylsulfamoyl)-benzamide] | < 20 | < 20
18 | CCN(CC)CCN1CCN(C(=O)CNC(=O)c2ccc(S(=O)(=O)Nc3ccccc3Oc3ccccc3)cc2)CC1 [Example 2.4, N-{2-[4-(2-Diethylamino-ethyl)-piperazin-1-yl]-2-oxo-ethyl}-4-(2-phenoxy-phenylsulfamoyl)-benzamide] | < 20 | < 20
19 | O=C(NCC(=O)N1CCN(CCCN2CCCC2)CC1)c1ccc(S(=O)(=O)Nc2ccccc2Oc2ccccc2)cc1 [Example 2.5, N-{2-Oxo-2-[4-(3-pyrrolidin-1-yl-propyl)-piperazin-1-yl]-ethyl}-4-(2-phenoxy-phenylsulfamoyl)-benzamide] | < 20 | < 20
